For one test, the target named is VEGFR-1 (Homo sapiens (Human), UniProt P17948). The test is described as follows: Enzyme selectivity test (ELISA), VEGFR-1. It is filed as biochemical. The method, then:
(§1) 1) Enzyme reaction substrate Poly(Glu, Tyr) 4:1 was diluted to 20 μg/mL with potassium-free PBS (10 mM sodium phosphate buffer, 150 mM NaCl, pH 7.2-7.4), and the microtiter plate was coated with 125 μL/well and placed at 37° C. for 12-16 hours of reaction. The liquid in the well was discard. The plate was washed three times with T-PBS (potassium-free PBS containing 0.1% Tween-20, 200 μL/well), 5 minutes each time. The ELISA plate was dried in an oven at 37° C. for 1 to 2 hours.
(§2) 2) Reaction buffer (50 mM HEPES pH 7.4, 50 mM MgCl2, 0.5 mM MnCl2, 0.2 mM Na3VO4, 1 mM DTT) diluted ATP solution (49 μL) was added to each well, 1 μL of the compound to be tested was added to each well, and then 50 μL of DDR2 kinase domain recombinant protein diluted in the reaction buffer was added to start the reaction. Two control wells without ATP were set in each experiment. The plate placed on a shaker (100 rpm) at 37° C. for 1 hour of reaction. The liquid in the well was discarded and the plate was washed three times with T-PBS.
(§3) 3) Antibody PY99 dilution solution (the antibody was diluted 1:500 with T-PBS containing BSA 5 mg/mL) was added at 100 μL/well, and shaken on a shaker at 37° C. for 0.5 hour of reaction. The liquid in the well was discarded and the plate was washed three times with T-PBS.
(§4) 4) Horseradish peroxidase labeled goat anti-murine secondary antibody dilution solution (the antibody is diluted 1:2000 with T-PBS containing BSA 5 mg/ml) was added at 100 μL/well, and shaken on a shaker at 37° C. for 0.5 hour of reaction. The liquid in the well was discarded and the plate was washed three times with T-PBS.
(§5) 5) 2 mg/ml of OPD color developing solution [diluted with 0.1 M citric acid-sodium citrate buffer (pH=5.4) containing 0.03% H2O2] was added at 100 μL/well and reacted for 1 to 10 minutes at 25° C. in the dark.
(§6) 6) 2M H2SO4 was added at 50 μL/well to stop the reaction, and a tunable wavelength microplate reader VERSAmax was used for reading at a wavelength of 490 nm.
(§7) The IC50 value was obtained by four-parameter regression using the software that came with the microplate reader. […]
(In general: In an ELISA, binding on a coated surface is turned into a signal by an enzyme label.)

The next test addresses PDGFR-α (Homo sapiens (Human), UniProt P16234). Nature of the test: Enzyme selectivity test (ELISA), PDGFR-α. The class given is biochemical. The method, then: as §1, §2, §3, §4, §5, §6, §7
A further test concerns the target ErbB4 (Homo sapiens (Human), UniProt Q15303). Nature of the test: Enzyme selectivity test (ELISA), ErbB4. It is filed as biochemical. The procedure:
as §1, §2, §3, §4, §5, §6, §7

Another test deals with EPH-A2 (Homo sapiens (Human), UniProt P29317). Nature of the test: Enzyme selectivity test (ELISA), EPH-A2. It is filed as biochemical. The procedure: as §1, §2, §3, §4, §5, §6, §7
Another test has as its target KDR (Homo sapiens (Human), UniProt P35968). The test is described as follows: Enzyme selectivity test (ELISA), KDR. The class given is biochemical. The procedure: as §1, §2, §3, §4, §5, §6, §7
In test [1] the test system is mouse model of BLM-induced lung injury. The test is described as follows: mRNA levels of inflammatory cytokines in lung tissue (qRT-PCR). The class given is in vivo. Conditions: mice, 30, 60, 90 mg/kg. The procedure: The experiment used qRT-PCR technology to determine the mRNA levels of pro-inflammatory cytokines in lung tissue. Real-time quantitative PCR was used to detect the mRNA levels of TNF-α, IL-6, IL-1β, TGF-β and others.
About 30 mg of cryopreserved lung tissue was weighed and homogenized and lysed by adding 200 μL of Trizol (Takara, 9109 #). The fluid after the lysis in the well was collected by the RNA sterilization-grade pipette tip and transferred to the corresponding sterile EP tube. […] of chloroform was added, shaken vigorously for 30 sec, and centrifuged for 15 minutes in a centrifuge at 4° C. at 12000 rpm. The upper aqueous layer was transferred to a new EP tube, an equal volume of isopropanol was used to precipitate the RNA in the aqueous phase, and the tube was allowed to stand at −20° C. for more than 1 hr. And then the tube was centrifuged for 15 min at 4° C. at 12000 rpm, and the supernatant was discarded. 75% ethanol was added to wash the RNA pellet, and then the tube was centrifuged for 15 min at 4° C. at 12000 rpm, and the supernatant was discarded. The tube was placed at room temperature for 10-20 min to dry the RNA pellet. 25-200 μL of RNase-free water was added for dissolution and stored at −80° C.
PrimeScript™ RT Master Mix (Takara, RR036A) was selected for mRNA reverse transcription. Please refer to the instructions for the system. […]
A general note: In qPCR the cycle at which signal appears reflects the starting amount.

Test [2] concerns pulmonary fibrosis induced by bleomycin in mice. Nature of the test: Hydroxyproline level of the whole lung. The class given is in vivo, mouse. Conditions: Effect example 5; compared with the BLM control group. The method, then:
The change in hydroxyproline was determined by using a hydroxyproline detection kit, the steps are as follows:
1) The wet weights of the lung tissues in different groups were accurately weighed, and the lung tissues were placed in a 20 ml centrifuge tube after weighing.
2) 1 ml of hydrolysate was added to a 20 ml centrifuge tube and the tube was placed in boiling water at a constant temperature for 20 minutes.
3) The pH of the sample was adjusted to 6.0-8.0 with the reagents provided in the kit.
4) The reagents in the centrifuge tube were made up to 10 ml with distilled water, and mixed thoroughly.
5) 5 ml of hydrolysate was taken from the centrifuge tube, an appropriate amount of activated carbon was added, mixed thoroughly, centrifuged at 3500 rpm for 10 minutes in a centrifuge, and 1 ml of upper supernatant layer was taken for subsequent monitoring.
6) Reagents 1, 2, and 3 were added in order, mixed thoroughly, and then placed in a water bath at 60° C. for 15 minutes, then placed at room temperature for 5 minutes, and centrifuged in a centrifuge at 3500 rpm for 10 minutes. […] Distilled water was used as the zero setting and the absorbance value of each sample at 550 nm wavelength was determined.
7) A standard curve was drew based on the absorbance of the standard, and used as a basis to determine the hydroxyproline content of each sample. […]

For the next test, the system named is primary lung fibroblasts. Nature of the test: Activation of myofibroblasts in primary lung fibroblasts isolated from mice. It is filed as cell-based, mouse. To be noted: primary lung fibroblasts isolated from mice of the experimental groups.

Sequence of EPH-A2 (P29317 24-976, species assumed): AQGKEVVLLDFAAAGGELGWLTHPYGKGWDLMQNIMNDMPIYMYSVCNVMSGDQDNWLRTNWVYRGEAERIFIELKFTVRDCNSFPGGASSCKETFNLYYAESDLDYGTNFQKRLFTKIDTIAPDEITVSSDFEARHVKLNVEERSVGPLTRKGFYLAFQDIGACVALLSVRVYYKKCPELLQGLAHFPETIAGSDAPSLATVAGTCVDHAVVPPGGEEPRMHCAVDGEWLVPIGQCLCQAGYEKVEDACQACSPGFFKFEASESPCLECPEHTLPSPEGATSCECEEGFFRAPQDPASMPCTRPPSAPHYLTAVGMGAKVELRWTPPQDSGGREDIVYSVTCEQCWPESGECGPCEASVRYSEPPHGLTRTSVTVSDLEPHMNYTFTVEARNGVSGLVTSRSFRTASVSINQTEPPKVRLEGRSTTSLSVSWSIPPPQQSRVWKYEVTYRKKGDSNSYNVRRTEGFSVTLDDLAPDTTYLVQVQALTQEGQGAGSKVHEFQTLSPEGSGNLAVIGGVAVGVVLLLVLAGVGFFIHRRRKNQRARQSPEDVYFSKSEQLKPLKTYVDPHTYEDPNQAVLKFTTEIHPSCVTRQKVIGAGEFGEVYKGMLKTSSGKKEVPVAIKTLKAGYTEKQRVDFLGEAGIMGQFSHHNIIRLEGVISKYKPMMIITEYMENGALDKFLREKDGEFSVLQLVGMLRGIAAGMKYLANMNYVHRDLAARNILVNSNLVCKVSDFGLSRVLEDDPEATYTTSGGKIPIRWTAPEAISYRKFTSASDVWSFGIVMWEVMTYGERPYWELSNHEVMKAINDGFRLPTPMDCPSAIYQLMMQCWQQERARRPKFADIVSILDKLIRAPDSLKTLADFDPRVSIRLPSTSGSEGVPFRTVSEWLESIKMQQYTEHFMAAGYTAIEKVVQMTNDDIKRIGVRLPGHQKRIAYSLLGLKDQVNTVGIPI
Sequence of VEGFR-1 (P17948 27-1338, species assumed): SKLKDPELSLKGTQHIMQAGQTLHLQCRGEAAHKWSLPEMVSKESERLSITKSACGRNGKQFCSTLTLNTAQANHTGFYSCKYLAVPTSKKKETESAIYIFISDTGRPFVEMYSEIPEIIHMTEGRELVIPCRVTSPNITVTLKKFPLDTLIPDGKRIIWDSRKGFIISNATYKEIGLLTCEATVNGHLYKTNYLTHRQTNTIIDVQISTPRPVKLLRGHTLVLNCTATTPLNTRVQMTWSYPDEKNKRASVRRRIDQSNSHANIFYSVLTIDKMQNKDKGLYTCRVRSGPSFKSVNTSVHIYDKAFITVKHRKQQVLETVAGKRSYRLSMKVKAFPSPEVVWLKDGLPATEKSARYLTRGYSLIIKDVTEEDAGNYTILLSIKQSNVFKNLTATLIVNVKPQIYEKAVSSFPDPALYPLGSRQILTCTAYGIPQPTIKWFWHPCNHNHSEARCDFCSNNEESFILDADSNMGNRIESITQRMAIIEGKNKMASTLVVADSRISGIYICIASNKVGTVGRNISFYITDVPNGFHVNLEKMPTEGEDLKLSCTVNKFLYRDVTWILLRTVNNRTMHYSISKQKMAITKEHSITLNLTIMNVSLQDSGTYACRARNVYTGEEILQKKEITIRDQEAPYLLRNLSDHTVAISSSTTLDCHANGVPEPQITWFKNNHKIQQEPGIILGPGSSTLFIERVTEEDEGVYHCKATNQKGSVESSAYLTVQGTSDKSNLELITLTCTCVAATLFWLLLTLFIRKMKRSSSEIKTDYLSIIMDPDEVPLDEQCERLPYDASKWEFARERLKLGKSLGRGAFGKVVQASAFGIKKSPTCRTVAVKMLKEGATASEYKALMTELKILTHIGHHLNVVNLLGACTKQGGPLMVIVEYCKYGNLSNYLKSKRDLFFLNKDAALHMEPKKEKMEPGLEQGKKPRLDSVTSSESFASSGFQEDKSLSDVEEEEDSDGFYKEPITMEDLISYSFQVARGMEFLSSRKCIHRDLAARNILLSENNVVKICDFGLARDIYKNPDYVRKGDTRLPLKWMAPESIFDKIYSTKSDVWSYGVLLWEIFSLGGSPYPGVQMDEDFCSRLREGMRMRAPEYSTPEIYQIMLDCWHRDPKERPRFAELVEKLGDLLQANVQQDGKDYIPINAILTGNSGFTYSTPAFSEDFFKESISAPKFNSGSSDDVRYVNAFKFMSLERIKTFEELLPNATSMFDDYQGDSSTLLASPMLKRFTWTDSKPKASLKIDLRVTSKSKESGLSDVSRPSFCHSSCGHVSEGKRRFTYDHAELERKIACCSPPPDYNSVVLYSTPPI
Sequence of PDGFR-α (P16234 24-1089, species assumed): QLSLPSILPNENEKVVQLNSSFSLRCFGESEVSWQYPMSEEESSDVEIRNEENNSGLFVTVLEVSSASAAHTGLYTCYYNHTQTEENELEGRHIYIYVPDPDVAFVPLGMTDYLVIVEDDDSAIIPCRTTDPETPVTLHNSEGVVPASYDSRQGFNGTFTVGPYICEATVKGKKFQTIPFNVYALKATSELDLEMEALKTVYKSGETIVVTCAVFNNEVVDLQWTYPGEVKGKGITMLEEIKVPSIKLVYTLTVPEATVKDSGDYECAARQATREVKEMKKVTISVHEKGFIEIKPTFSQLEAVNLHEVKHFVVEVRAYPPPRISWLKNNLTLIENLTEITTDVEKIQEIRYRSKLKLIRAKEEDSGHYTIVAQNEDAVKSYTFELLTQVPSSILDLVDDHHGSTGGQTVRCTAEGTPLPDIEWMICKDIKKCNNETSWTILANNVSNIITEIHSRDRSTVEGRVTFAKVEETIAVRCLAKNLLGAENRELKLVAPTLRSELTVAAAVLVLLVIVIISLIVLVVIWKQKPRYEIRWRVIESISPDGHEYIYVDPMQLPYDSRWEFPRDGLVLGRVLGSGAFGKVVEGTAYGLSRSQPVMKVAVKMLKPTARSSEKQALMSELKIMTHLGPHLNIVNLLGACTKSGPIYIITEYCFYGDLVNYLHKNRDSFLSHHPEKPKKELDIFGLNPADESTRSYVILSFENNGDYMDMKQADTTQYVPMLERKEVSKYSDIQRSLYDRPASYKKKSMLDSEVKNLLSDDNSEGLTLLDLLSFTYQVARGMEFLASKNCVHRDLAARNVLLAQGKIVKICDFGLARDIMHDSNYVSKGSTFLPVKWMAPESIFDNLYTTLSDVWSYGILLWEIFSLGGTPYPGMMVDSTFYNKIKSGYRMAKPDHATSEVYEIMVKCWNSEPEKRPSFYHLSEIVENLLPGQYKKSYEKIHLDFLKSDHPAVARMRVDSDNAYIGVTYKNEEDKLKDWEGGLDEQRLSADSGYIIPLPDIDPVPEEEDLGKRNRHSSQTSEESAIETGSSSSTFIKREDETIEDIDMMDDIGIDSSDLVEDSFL
Sequence of KDR (P35968 20-1356, species assumed): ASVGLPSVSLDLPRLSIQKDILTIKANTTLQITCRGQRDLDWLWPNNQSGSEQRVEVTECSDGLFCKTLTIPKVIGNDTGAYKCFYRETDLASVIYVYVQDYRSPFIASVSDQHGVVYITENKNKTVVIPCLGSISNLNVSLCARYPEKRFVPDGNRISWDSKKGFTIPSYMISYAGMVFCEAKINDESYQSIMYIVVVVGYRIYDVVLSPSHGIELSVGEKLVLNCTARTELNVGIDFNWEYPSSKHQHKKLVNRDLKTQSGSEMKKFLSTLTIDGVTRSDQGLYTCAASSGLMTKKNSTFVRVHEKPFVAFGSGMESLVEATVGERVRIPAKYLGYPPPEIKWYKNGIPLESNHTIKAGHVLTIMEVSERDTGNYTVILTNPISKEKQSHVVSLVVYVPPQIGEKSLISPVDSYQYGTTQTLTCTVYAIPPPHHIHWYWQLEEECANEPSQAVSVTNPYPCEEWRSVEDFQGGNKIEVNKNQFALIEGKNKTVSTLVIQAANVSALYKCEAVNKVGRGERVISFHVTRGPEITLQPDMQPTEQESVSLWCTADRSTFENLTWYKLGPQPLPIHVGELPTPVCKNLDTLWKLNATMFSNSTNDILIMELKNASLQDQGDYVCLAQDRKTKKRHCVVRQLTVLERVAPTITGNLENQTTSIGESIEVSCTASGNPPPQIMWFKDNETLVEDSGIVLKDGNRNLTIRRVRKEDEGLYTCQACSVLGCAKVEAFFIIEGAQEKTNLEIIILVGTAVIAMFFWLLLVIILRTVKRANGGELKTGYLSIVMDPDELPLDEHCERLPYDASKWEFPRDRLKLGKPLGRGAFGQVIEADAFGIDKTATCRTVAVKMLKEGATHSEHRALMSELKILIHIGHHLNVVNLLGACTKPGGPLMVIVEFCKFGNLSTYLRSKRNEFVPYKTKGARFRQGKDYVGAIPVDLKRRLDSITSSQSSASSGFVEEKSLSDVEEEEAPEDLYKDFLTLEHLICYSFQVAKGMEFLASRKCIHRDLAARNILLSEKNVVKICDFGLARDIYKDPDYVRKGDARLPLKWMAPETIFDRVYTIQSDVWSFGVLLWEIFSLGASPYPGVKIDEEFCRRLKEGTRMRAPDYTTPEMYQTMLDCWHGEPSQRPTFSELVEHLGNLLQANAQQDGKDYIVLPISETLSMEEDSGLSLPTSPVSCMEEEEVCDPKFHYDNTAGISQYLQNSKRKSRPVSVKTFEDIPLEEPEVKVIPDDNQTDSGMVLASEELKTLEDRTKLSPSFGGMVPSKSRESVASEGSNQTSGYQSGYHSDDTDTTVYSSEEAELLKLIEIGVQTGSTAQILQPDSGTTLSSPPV

With `O=C(Nc1cccc(C(F)(F)F)c1)c1ccc(C2CC2)c(-c2ccc3nc(Nc4cnn(C5CC5)c4)ncc3c2)c1` [Compound S15, 4-cyclopropyl-3-(2-((1-cyclopropyl-1H-pyrazol-4-yl)amino)quinazolin-6-yl)-N-(3-(trifluoromethyl)phenyl)benzamide], the IC50 at VEGFR-1 is greater than 1000 nM; against PDGFR-α, greater than 1000 nM; at ErbB4, greater than 10 nM; at EPH-A2, greater than 10 nM; against KDR, less than 10 nM. Also, in test [1], the “mRNA levels of pro-inflammatory cytokines TNF-α, IL-1β and IL-6 in lung tissue” value is recorded as “significantly reduce the levels of pro-inflammatory cytokines in a dose-dependent manner”. The “hydroxyproline level of the whole lung” value in test [2] is “significantly reduce the level of hydroxyproline”. In the test on primary lung fibroblasts, the activation of myofibroblasts entry is listed as “inhibit the activation of myofibroblasts in a dose-dependent manner”.

Broadly, the IC50 is the concentration that inhibits the measured activity by half. Low values mean greater potency in that assay, high ones weaker potency in that assay.

Source of the values: patent publication US11655239B2 (SHANGHAI INSTITUTE OF MATERIAL MEDICA, CHINESE ACADEMY OF …, priority 2019, dated 2023).
